Measured values published in EP0369083A1, “Cardioprotective tocopherol analogs” (MERRELL DOW PHARMACEUTICALS INC., priority 1988, dated 1990).
Values joined by “and” are separate entries in the source; they are usually repeats but may differ in a detail not shown here. Identical values can stand only once.

Columns and labels:
[1] = Free radical scavenging: inhibition of autoxidation of 1-epinephrine (Misra and Fridovich assay); format: biochemical; details: 1-epinephrine 1 x 10⁻⁴M, EDTA 1 x 10⁻⁴M, 30°C, absorbance at 480 nm; read-out: 50% inhibition of the autoxidation rate (ID₅₀)
Procedure: 2-(3,4-dihydro-6-hydroxy-2,5,7,8-tetramethyl-2H-1-benzopyran-2-yl)ethyl-N,N,N-trimethylammonium bromide, described in Example 1, was evaluated for its ability to reduce superoxide radicals in an assay described by H.P. Misra and J. Fridovich, 1972, J. Biol. Chem. 247, 3170-5. In this assay, the rate of autoxidation of 1-epinephrine (1 x 10⁻⁴M) in the presence of EDTA (1 x 10⁻⁴M) at 30°C is followed spectrophotometrically following the increase of absorbance at 480 mn. […] For comparison, 3,4-dihydro-6-hydroxy-2,5,7,8-tetramethyl-2H-1-benzopyran -2-carboxylic acid (CAS 53188-07-1) gave ID₅₀ = 105 ± 8 µM and d,1-penicillamine (CAS 52-67-5) ID₅₀ = 73 µM in parallel experiments. Misra and Fridovich report that bovine superoxide dismutase gave 50% inhibition at […].

[2] = system: ligation-induced infarcted and reperfused rats; test: Cardioprotective effects: coronary ligation 60 min and reperfusion 30 min, infarcted area versus area at risk; format: in vivo
Procedure: 2-(3,4-Dihydro-2,5,7,8-tetramethyl-6-methyl-carbonyloxy-2H-1-benzopyran-2-yl) ethyl-N,N,N-trimethyl-ammonium bromide was evaluated in ligation-induced infarcted and reperfused rats as follows. One of two groups of rats was infused intravenously with a solution of test compound in saline at a rate of 2.3 ml/h (10 mg/kg/h). The control group was infused with saline at the same rate. After 10 min of drug infusion, coronary arteries were ligated surgically for 60 min, ligation was loosened to allow reperfusion for 30 min. The ligation was retied and a dye (Evans Blue) was injected. The animals were sacrificed and the heart ventricles were removed and weighed. The unstained tissue was dissected and weighed; this represents the "area at risk", i.e. the area that was deprived of blood supply by ligation. To determine the infarcted area, the tissue was incubated with 2,3,5-triphenyltetrazolium chloride. Infarcted tissue became light colored and could be dissected and weighed. Thus, for each rat that survived the ligation a measurement of "area at risk" and of "infarcted area" was obtained and the ratio was calculated as given in Tables II and III.

[3] = Affinity for cardiac tissue: radioactivity in heart and blood after intravenous 14C-labelled compound; format: in vivo; parameters: ng equiv/g heart: unit not given here; details: rats, 0.91 mg base/kg intravenous
Procedure: Following the procedure described in Example 1, but using ¹⁴C-methyl p-toluenesulfonate in place of "cold material", ¹⁴C-labelled 2-(3,4-dihydro-2,5,7,8-tetramethyl-6-methylcarbonyloxy-2H-1-benzopyranan-2-yl)ethyl-N,N,N-tri-¹⁴C-methylammonium p-toluenesulfonate was synthesized. The preparation was diluted with "cold material" to 11.74 µCi/mg base.
24 rats were given 0.91 mg base/kg by intravenous route (by canula into the jugular vein). The animals were sacrificed in groups of 3 at the time periods indicated in Table I. Immediately before sacrifice a 0.5 ml blood sample was taken from an indwelling catheter in the carotid artery. The hearts were removed, blotted and weighed. The samples of tissue and blood were solubiized with Luma Solve (a quaternary ammonium hydroxide preparation) and radioactivity was determined in a scintillation counter.

[4] = treated group, 10 mg/kg/h intravenous infusion, individual rats No. 1-10, 10 mg/kg

SMILES: Cc1c(C)c2c(c(C)c1O)CCC(C)(C(=O)O)O2 (stereo not drawn) [3,4-dihydro-6-hydroxy-2,5,7,8-tetramethyl-2H-1-benzopyran-2-carboxylic acid]
- IC50 [1]: 105 ± 8 µM

SMILES: Cc1c(C)c2c(c(C)c1O)CCC(C)(CC[N+](C)(C)C)O2 (stereo not drawn) [Example 1, 2-(3,4-Dihydro-6-hydroxy-2,5,7,8-tetramethyl-2H-1-benzo-pyran-2-yl)ethyl-N,N,N-trimethylammonium bromide]
- IC50 [1]: 138 ± 14 µM

SMILES: CC(=O)Oc1c(C)c(C)c2c(c1C)CCC(C)(CC[N+](C)(C)C)O2.[Br-] (stereo not drawn) [Example 2, 2-(3,4-Dihydro-2,5,7,8-tetramethyl-6-methylcarbonyloxy-2H-1-benzopyran-2-yl)ethyl-N,N,N-trimethylammonium bromide]
- reduction of infarction ([2]; treated (10 mg/kg/h) versus saline control, statistically significant (ANOVA) at p = 0.02): 42.7%
- Ratio % (infarcted tissue / tissue at risk), average ([2]; treated group, 10 mg/kg/h intravenous infusion, average of 10 rats, control group 83.31, 10 mg/kg): 47.8% and 47.75%
- Infarcted tissue,mg [2, 4]: 23 mg and 27 mg and 299 mg and 39 mg and 33 mg and 247 mg and 193 mg and 134 mg and 123 mg and 157 mg
- Ratio % (infarcted tissue / tissue at risk) [2, 4]: 45.2% and 9.4% and 97.5% and 15.5% and 18.9% and 64.8% and 62.1% and 64.5% and 31.2% and 68.4%

SMILES: CC(=O)Oc1c(C)c(C)c2c(c1C)CCC(C)(CC[N+](C)(C)C)O2.Cc1ccc(S(=O)(=O)[O-])cc1 (stereo not drawn) [Example 9, 2-(3,4-Dihydro-2,5,7,8-tetramethyl-6-methylcarbonyloxy-2H-1-benzopyran-2-yl)ethyl-N,N,N-trimethylammonium p-toluenesulfonate]
- Ratio heart/blood ([3]; 5 min after administration): 3.05 ± 1.46
- ng equiv/g heart ([3]; 5 min after administration): 1.591 ± 0.22
- ng equiv/ml blood ([3]; 5 min after administration): 0.434 ± 0.351 ng equiv/ml blood
- Ratio heart/blood ([3]; 15 min after administration): 6.90 ± 8.34
- ng equiv/g heart ([3]; 15 min after administration): 1.728 ± 0.422
- ng equiv/ml blood ([3]; 15 min after administration): 0.590 ± 0.295 ng equiv/ml blood
- Ratio heart/blood ([3]; 30 min after administration): 17.33 ± 5.42
- ng equiv/g heart ([3]; 30 min after administration): 1.905 ± 0.278
- ng equiv/ml blood ([3]; 30 min after administration): 0.124 ± 0.032 ng equiv/ml blood
- Ratio heart/blood ([3]; 1 hour after administration): 20.09 ± 2.54
- ng equiv/g heart ([3]; 1 hour after administration): 2.092 ± 0.406
- ng equiv/ml blood ([3]; 1 hour after administration): 0.096 ± 0.008 ng equiv/ml blood
- Ratio heart/blood ([3]; 2 hours after administration): 21.90 ± 3.56
- ng equiv/g heart ([3]; 2 hours after administration): 1.395 ± 0.042
- ng equiv/ml blood ([3]; 2 hours after administration): 0.086 ± 0.041 ng equiv/ml blood
- ng equiv/g heart ([3]; 4 hours after administration): 1.253 ± 0.248
- ng equiv/ml blood ([3]; 4 hours after administration): 0.054 ± 0.013 ng equiv/ml blood
- Ratio heart/blood ([3]; 4 hours after administration (maximum), listed as 2-(3,4-dihydro-2,5,7,8-tetramethyl-6-methylcarbonyloxy-2H-1-benzopyranan-2-yl)et, p-toluenesulfonate): 27.15 and 27.15 ± 4.30
- Ratio heart/blood ([3]; 6 hours after administration): 18.62 ± 2.77
- ng equiv/g heart ([3]; 6 hours after administration): 0.863 ± 0.067
- ng equiv/ml blood ([3]; 6 hours after administration): 0.048 ± 0.007 ng equiv/ml blood
- Ratio heart/blood ([3]; 8 hours after administration): 15.12 ± 2.69
- ng equiv/g heart ([3]; 8 hours after administration): 0.652 ± 0.116
- ng equiv/ml blood ([3]; 8 hours after administration): 0.048 ± 0.012 ng equiv/ml blood
- concentration of drug in heart tissue ([3]; after 8 h): 0.65 µg equiv/g
- affinity for heart tissue ([3]; conclusion in words): marked affinity for heart tissue

SMILES: CC(C)(S)[C@@H](N)C(=O)O [d,1-penicillamine]
- IC50 [1]: 73 µM
